Source: PubChem BioAssay AID1996
Converted amounts (≈) assume the structure as drawn.

Details: buffer; pH 7.4; 200.0 µM

| Compound | solubility kinetic |
| --- | --- |
| COc1ccc(CNC(=O)COC(=O)c2ccc3ccccc3n2)cc1 | 16.3 µg/mL (≈ 46.5 µM) |
| COc1ccc2c(c1)CC/C(=C\Nc1ccc3c(c1)OCO3)C2=O | 11.2 µg/mL (≈ 34.6 µM) |
| Fc1ccc(CNCCc2ccc3c(c2)OCO3)cc1 | 31.1 µg/mL (≈ 114 µM) |
| O=C(NCC(c1ccco1)N1CCOCC1)c1ccc(F)cc1 (configuration not stated) | > 47.8 µg/mL |
| CC(C)(C)c1cc(C(=S)N2CCCC2)cc(C(C)(C)C)c1O | 4.7 µg/mL (≈ 14.7 µM) |
| O=[N+]([O-])c1ccc(OCC2CC(c3ccccc3)=NO2)cc1 (configuration not stated) | < 0.3 µg/mL |
| O=c1c2ccccc2ncn1CCOCCOc1ccc([N+](=O)[O-])cc1 | 17.1 µg/mL (≈ 48.1 µM) |
| COC(=O)c1sccc1NC(=S)OC | 6.1 µg/mL (≈ 26.4 µM) |
| CCCCc1ccc(NC(=O)Cn2c(=O)c(N3CCCCC3)c(N)n(C)c2=O)cc1 | 26.6 µg/mL (≈ 64.3 µM) |
| CCCN(CC(=O)Nc1ccccc1OC)C(=O)C1CCCC1 | > 47.8 µg/mL |
| COC(=O)c1cnc(N2CCOCC2)nc1C(F)(F)F | 35.3 µg/mL (≈ 121 µM) |
| O=C(Nc1ccc(F)cc1)N1CCCN(c2nccc(C(F)(F)F)n2)CC1 | 57 µg/mL (≈ 149 µM) |
| O=C(NC1CCN(Cc2ccc3ccccc3c2)CC1)c1ccccc1 | 2.8 µg/mL (≈ 8.13 µM) |
| O=C(NCCCn1ccnc1)c1ccc(-c2cccc(Cl)c2Cl)o1 | 48.1 µg/mL (≈ 132 µM) |
| CC1CCN(CCn2c(=S)[nH]c3ccccc3c2=O)CC1 | 43.3 µg/mL (≈ 143 µM) |
| O=C(NCCc1ccccn1)c1ccc(OC(F)F)cc1 | > 43.8 µg/mL |
| O=C(Nc1ncccn1)c1ccc(Cl)c([N+](=O)[O-])c1 | > 41.8 µg/mL |
| Cc1[nH]c2ccccc2c(=O)c1CN1CCCCCC1 | > 40.6 µg/mL |
| O=C(/C=C/c1cccc([N+](=O)[O-])c1)N1CC[C@@]2(O)CCCC[C@H]2C1 | > 49.6 µg/mL |
| C[C@H](NC(=O)c1ccco1)C(=O)OCC(=O)N1CC(=O)Nc2ccccc21 | > 55.7 µg/mL |
| CC(C)c1ccc(OCC(=O)NC(C)c2ccccc2)cc1 (configuration not stated) | 16.5 µg/mL (≈ 55.5 µM) |
| COc1ccc(NC(=O)/C(C#N)=C/c2cccnc2)c(OC)c1 | 24.8 µg/mL (≈ 80.2 µM) |
| COC(=O)c1ccc(S(=O)(=O)N2CCCN(Cc3ccc(F)cc3)CC2)n1C | > 61.4 µg/mL |
| O=C(c1ccc(Br)s1)N1CCc2ccccc2C1 | 19.8 µg/mL (≈ 61.4 µM) |

| Compound | solubility kinetic |
| --- | --- |
| Cc1ccc(S(=O)(=O)CC(=O)Nc2nc3ccccc3s2)cc1 | 1.3 µg/mL (≈ 3.75 µM) |
| CN(c1ccccc1)c1nc(N)c([N+](=O)[O-])c(N2CCCCC2)n1 | 13 µg/mL (≈ 39.6 µM) |
| CC(NC(=O)CN(C)Cc1cccc(Cl)c1)c1ccccc1 (configuration not stated) | 38.6 µg/mL (≈ 122 µM) |
| CCC(=O)OCC(=O)N=c1sccn1Cc1ccc(C)cc1 | 36.4 µg/mL (≈ 114 µM) |
| O=C(Nc1ccccc1Oc1ccccc1)C1=COCCO1 | 34.3 µg/mL (≈ 115 µM) |
| O=C(Nc1nc2c(s1)CN(Cc1ccccc1)CC2)C1CCC1 | 40 µg/mL (≈ 122 µM) |
| O=C(NC1CCCC1)C1CCN(C(=O)c2cccc(Cl)c2)CC1 | > 50.2 µg/mL |
| CC1CC(C)(C)NC(=S)N1CCCC(=O)Nc1ccc(F)cc1 (configuration not stated) | 42.8 µg/mL (≈ 127 µM) |
| Cc1ccc2[nH]c(CCN(C)C)c(CN3CCOCC3)c2c1 | > 45.2 µg/mL |
| Nc1cc(=O)[nH]c(SCC(=O)Nc2cccnc2Cl)n1 | > 46.8 µg/mL |
| C=CCNc1nc(N)c([N+](=O)[O-])c(N2CCCCCC2)n1 | 40.4 µg/mL (≈ 138 µM) |
| CCN(CC)C(=O)CSc1nc(C)cc(C)c1C#N | 15.1 µg/mL (≈ 54.4 µM) |
| O=C(C(=O)N1CCN(c2ccccc2)CC1)c1c[nH]c2ccccc12 | 2 µg/mL (≈ 6 µM) |
| Cc1occc1C(=O)N1CCCC(Nc2ccc(F)cc2)C1 (configuration not stated) | > 45.4 µg/mL |
| Cc1ccc(C(=O)NC2CCN(C(=O)Nc3ccc(F)cc3)CC2)cc1 | 0.6 µg/mL (≈ 1.69 µM) |
| CCCc1cc(=O)[nH]c(SCC(=O)Nc2nonc2C)n1 | > 46.4 µg/mL |
| COc1ccc(C(C)NC(=O)C23CC4CC(CC(C4)C2)C3)cc1 (configuration not stated) | 0.8 µg/mL (≈ 2.55 µM) |
| O=C(NC1CCCC1)C1CCN(C(=O)NCc2ccccc2)CC1 | > 49.4 µg/mL |
| CN(C(=O)CSc1cc(Cl)ccc1Cl)C1CCS(=O)(=O)C1 (configuration not stated) | 53.7 µg/mL (≈ 146 µM) |
| Cc1ccc(C(=O)Nc2nccs2)cc1 | 16.5 µg/mL (≈ 75.6 µM) |
| Cc1c(Cl)cccc1NC(=O)Nc1cc(C(C)(C)C)on1 | < 0.2 µg/mL |
| CC1CCCC(NC(=S)NC(=O)c2ccco2)C1C (configuration not stated) | 5.4 µg/mL (≈ 19.3 µM) |
| C/C(=C\c1ccc(Cl)cc1)C(=O)c1c(C)cc(C)[nH]c1=O | 42.8 µg/mL (≈ 142 µM) |
| CS(=O)(=O)N(CC(=O)NCCSCc1cccc(Cl)c1)c1ccc(F)cc1 | 38 µg/mL (≈ 88.2 µM) |

| Compound | solubility kinetic |
| --- | --- |
| O=C(NCc1ccc(Cl)cc1)C1CCN(C(=O)c2ccco2)CC1 | > 52 µg/mL |
| C=CCOC(=O)C1=C(C)NC(C)=C(C(=O)OCC=C)C1c1ccco1 | 4.5 µg/mL (≈ 13.1 µM) |
| Cc1csc(NC(=O)C2=COCCO2)n1 | > 33.9 µg/mL |
| O=C(NC(=O)N1CCCCC1)c1ccc(Cl)cc1 | > 40 µg/mL |
| CN1C(=S)SC(/[N+]([O-])=C/c2ccc(Cl)cc2)C1(C)C (configuration not stated) | 15.7 µg/mL (≈ 49.9 µM) |
| O=C(CNC(=O)c1ccc2ccccc2c1)NCc1ccccc1F | 7.8 µg/mL (≈ 23.2 µM) |
| C[N+](C)(C)CC#CCN1CCCC1=O.[I-] | > 48.3 µg/mL |
| COc1ccc(OCC(=O)OC2CCCN(C)C2)cc1.Cl (configuration not stated) | > 47.4 µg/mL |
| CN(C)C(=O)CCCCCCCCC(=O)N(C)C | > 38.5 µg/mL |
| Cc1ccc2c(CN3CCCCC3CCO)cc(=O)oc2c1 (configuration not stated) | 39.4 µg/mL (≈ 131 µM) |
| O=C(Nc1ccncc1)c1ccc(Br)cc1 | > 41.6 µg/mL |
| Cn1nc(C(F)(F)F)c2cc(C(=O)N3CCOCC3)sc21 | > 47.9 µg/mL |
| CC(C)(CCO)Nc1ncnc2onc(-c3ccc(F)cc3)c12 | > 47.5 µg/mL |
| c1ccc(-c2cccs2)nc1 | 1.9 µg/mL (≈ 11.8 µM) |
| COc1ccc(CC(=O)Nc2ccc(OC(C)=O)cc2C(=O)O)cc1 | > 51.5 µg/mL |
| COc1ccccc1N(Cc1cc(=O)[nH]c2ccccc12)C(C)=O | > 48.4 µg/mL |
| CCNC(=O)c1cnn(-c2ccccc2)c1-c1ccccc1 | > 43.7 µg/mL |
| COc1ccc([N+](=O)[O-])cc1NC(=O)CCN1CCOCC1 | > 46.4 µg/mL |
| O=C(c1cccc([N+](=O)[O-])c1)N1CCCC(C(=O)N2CCCCC2)C1 (configuration not stated) | > 51.8 µg/mL |
| Cc1csc2c(N3CCC(C(=O)O)CC3)ncnc12 | 36.9 µg/mL (≈ 133 µM) |
| NC(=O)CN(C/C=C/c1ccccc1)C/C=C/c1ccccc1 | 7.4 µg/mL (≈ 24.2 µM) |
| O=[N+]([O-])c1cccc(P(=O)(O)c2cccc([N+](=O)[O-])c2)c1 | > 46.2 µg/mL |
| COc1ccccc1NC(=O)c1ccc(NC(=O)CN2CCCCC2)cc1.O=C(O)C(=O)O | > 68.6 µg/mL |
| CC(NC(=O)CCN1C(=O)c2ccccc2C1=O)c1ccccc1 (configuration not stated) | > 48.4 µg/mL |

| Compound | solubility kinetic |
| --- | --- |
| COc1ccc(CC(=O)OCC(=O)NC2CCCC(C)C2C)cc1OC (configuration not stated) | > 54.5 µg/mL |
| COc1ccc(NC(=O)COC(=O)C2C3CC4OC(=O)C2C4C3)cc1 (configuration not stated) | > 51.8 µg/mL |
| COc1ccccc1-n1c(/C=C/c2ccccn2)nc2ccccc2c1=O | 7.3 µg/mL (≈ 20.5 µM) |
| CC(NC(=O)c1cnc2ccccc2n1)c1ccccc1 (configuration not stated) | 33.7 µg/mL (≈ 122 µM) |
| N#Cc1nc(-c2ccc(F)cc2)oc1N1CCC(C(N)=O)CC1 | 12.4 µg/mL (≈ 39.5 µM) |
| Cc1nc([N+](=O)[O-])cn1CC(=O)c1ccccc1 | 31.5 µg/mL (≈ 128 µM) |
| Cc1cc(Cl)ccc1OCC(=O)Nc1ccncc1 | > 41.5 µg/mL |
| CC(C)CN(C(=O)CSc1nc2ccccc2c(=O)[nH]1)c1c(N)n(CC(C)C)c(=O)[nH]c1=O | 10.5 µg/mL (≈ 22.2 µM) |
| O=C1NC2=C(C(=O)CCC2)C(c2ccccc2[N+](=O)[O-])N1 (configuration not stated) | > 43.1 µg/mL |
| O=C(CNC(=O)C1CCCCC1)OCC(=O)c1ccc(Br)cc1 | 27.6 µg/mL (≈ 72.2 µM) |
| Cc1cc(=O)[nH]c2c(C)cc(S(=O)(=O)Nc3ccc(O)cc3)cc12 | 49.7 µg/mL (≈ 144 µM) |
| O=C(COc1cccnc1[N+](=O)[O-])N1CCC(Cc2ccccc2)CC1 | 51.9 µg/mL (≈ 146 µM) |
| CCOC(=O)CN1C(=O)S/C(=C\c2ccc3c(c2)OCO3)C1=O | 1.8 µg/mL (≈ 5.37 µM) |
| CCSc1nc2sc3c(c2c(=O)n1CC)CCC3 | 2.2 µg/mL (≈ 7.85 µM) |
| O=C(Oc1cccc(C(=S)N2CCCCC2)c1)c1ccccc1 | 6 µg/mL (≈ 18.4 µM) |
| Cc1cccc(C(=O)OCCN2CCOCC2)c1.Cl | > 42.9 µg/mL |
| O=C1CN(C(=O)COc2ccccc2)c2ccccc2N1 | > 42.3 µg/mL |
| CC(C)Oc1ccc(C(=O)Nc2cccc(S(=O)(=O)N3CCCC3)c2)cc1 | 8.5 µg/mL (≈ 21.9 µM) |
| O=C1Cc2ccccc2C(c2ccc(Cl)cc2Cl)N1 (configuration not stated) | 3.1 µg/mL (≈ 10.6 µM) |
| CC(=O)c1cn(Cc2ccccc2C#N)c2ccccc12 | 7 µg/mL (≈ 25.5 µM) |
| O=C(Cc1ccccc1)c1c[nH]c(C(=O)NCc2ccncc2)c1 | 6.1 µg/mL (≈ 19.1 µM) |
| COc1ccc2[nH]c(C(=O)Nc3ccccc3Cl)cc2c1 | < 0.3 µg/mL |
| C=CCCOc1ccccc1C(N)=O | 25.8 µg/mL (≈ 135 µM) |
| CC(NC(=O)c1cccc(S(=O)(=O)N(C)c2ccccc2)c1)c1cccnc1 (configuration not stated) | > 59.3 µg/mL |

| Compound | solubility kinetic |
| --- | --- |
| Cc1cccc(N2C(=O)CC(SC(N)=Nc3ccccc3)C2=O)c1 (configuration not stated) | 3 µg/mL (≈ 8.84 µM) |
| Cc1ccsc1C(=O)NC(C)c1ccccc1 (configuration not stated) | > 36.8 µg/mL |
| Cc1ccc(-c2nc(NCCCO)c3ccccc3n2)cc1 | 37.3 µg/mL (≈ 127 µM) |
| O=C(Nc1ccccc1O)C(c1ccccc1)c1ccccc1 | 9 µg/mL (≈ 29.7 µM) |
| Cn1c(C(=O)O)cc2c(=O)n3ccccc3nc21 | > 36.5 µg/mL |
| COCCNc1c(-c2ccc(OC)cc2)nc2ccc(Cl)cn12 | 38.4 µg/mL (≈ 116 µM) |
| Cc1cc([N+](=O)[O-])nn1CC(=O)NC(C)c1ccccc1 (configuration not stated) | > 43.2 µg/mL |
| CC12CC3CC(C)(C1)CC(C(=O)N1CCCC1)(C3)C2 | 3.9 µg/mL (≈ 14.9 µM) |
| COc1ccc(S(=O)(=O)N2CCc3ccccc32)cc1C(=O)N1CCC(C)CC1 | 57.8 µg/mL (≈ 139 µM) |
| CCCn1c(=O)c2[nH]c(C3CCCC3)nc2n(CCC)c1=O | 3.1 µg/mL (≈ 10.2 µM) |
| Cc1cc(NCc2cccnc2)no1 | 28 µg/mL (≈ 148 µM) |
| CC(=O)OCCNc1cc(SC(C)C)c2nonc2c1[N+](=O)[O-] | 4.1 µg/mL (≈ 12 µM) |
| Cc1ccc(C(=O)Nc2ccc(Nc3ccccc3)cc2)c(Cl)c1 | < 0.4 µg/mL |
| Cc1csc(NC(=O)c2cc(C)nc3ccccc23)n1 | 30.7 µg/mL (≈ 108 µM) |
| CN1C(=O)NC(c2ccc(Cl)cc2)C2=C1CC(C)(C)CC2=O (configuration not stated) | > 47.8 µg/mL |
| CC1CCCC(C)N1C(=O)COC(=O)CCC(=O)c1cccs1 (configuration not stated) | > 50.6 µg/mL |
| Cc1ccc(NC(=O)COC(=O)CNC(=O)c2ccco2)cc1 | 44.7 µg/mL (≈ 141 µM) |
| CC1CCCN(CC(=O)NC(=O)NC2CCCCC2)C1 (configuration not stated) | > 42.2 µg/mL |
| CCCCNC(=O)C(=O)Nc1cc2c3c(c1)CCC(=O)N3CCC2 | 1.5 µg/mL (≈ 4.55 µM) |
| CCOc1ccc(CCNC(=O)COC(=O)/C=C/c2ccco2)cc1OCC | 39.5 µg/mL (≈ 102 µM) |
| Cn1c(O)c(C(=Nc2ccc(F)cc2)c2ccccc2Cl)c(=O)n(C)c1=O | 1.8 µg/mL (≈ 4.64 µM) |
